# According to the NIST ThermoML archive (doi:10.1016/j.jct.2009.06.011):
# Numbers after ± are expanded uncertainties.
# Experiment: activity coefficient (dimensionless); of the first substance listed, at infinite dilution; xn = mol fraction of the nth substance listed
# Conditions: 101 kPa, Liquid, Chromatography, x1 = 0
SMILES,activity coefficient (318.15 K),activity coefficient (328.15 K),activity coefficient (338.15 K),activity coefficient (348.15 K),activity coefficient (358.15 K),activity coefficient (368.15 K),activity coefficient (298.15 K),activity coefficient (308.15 K)
"Cc1ccccc1C [1,2-dimethylbenzene] + CCCC[n+]1ccc(C)cc1.O=S(=O)([N-]S(=O)(=O)C(F)(F)F)C(F)(F)F",1.21 ± 0.08,1.24 ± 0.08,1.27 ± 0.08,1.3 ± 0.08,1.32 ± 0.09,1.35 ± 0.09,,
"Cc1cccc(C)c1 [1,3-dimethylbenzene] + CCCC[n+]1ccc(C)cc1.O=S(=O)([N-]S(=O)(=O)C(F)(F)F)C(F)(F)F",1.35 ± 0.09,1.38 ± 0.09,1.42 ± 0.09,1.45 ± 0.1,1.48 ± 0.1,1.51 ± 0.1,,
"Cc1ccc(C)cc1 [1,4-dimethylbenzene] + CCCC[n+]1ccc(C)cc1.O=S(=O)([N-]S(=O)(=O)C(F)(F)F)C(F)(F)F",1.35 ± 0.09,1.38 ± 0.09,1.42 ± 0.09,1.45 ± 0.1,1.48 ± 0.1,1.51 ± 0.1,,
C=CCCCCC [1-heptene] + CCCC[n+]1ccc(C)cc1.O=S(=O)([N-]S(=O)(=O)C(F)(F)F)C(F)(F)F,9.17 ± 0.63,8.82 ± 0.6,8.51 ± 0.58,8.24 ± 0.56,7.99 ± 0.54,7.76 ± 0.53,9.97 ± 0.68,9.56 ± 0.65
C#CCCCCC [1-heptyne] + CCCC[n+]1ccc(C)cc1.O=S(=O)([N-]S(=O)(=O)C(F)(F)F)C(F)(F)F,3.24 ± 0.22,3.26 ± 0.22,3.27 ± 0.22,3.28 ± 0.22,3.29 ± 0.22,3.3 ± 0.22,3.2 ± 0.22,3.23 ± 0.22
C#CCCCC [1-hexyne] + CCCC[n+]1ccc(C)cc1.O=S(=O)([N-]S(=O)(=O)C(F)(F)F)C(F)(F)F,2.42 ± 0.16,2.44 ± 0.17,2.46 ± 0.17,2.48 ± 0.17,2.5 ± 0.17,2.52 ± 0.17,2.37 ± 0.16,2.39 ± 0.16
C#CCCCCCC [1-octyne] + CCCC[n+]1ccc(C)cc1.O=S(=O)([N-]S(=O)(=O)C(F)(F)F)C(F)(F)F,4.4 ± 0.3,4.38 ± 0.3,4.37 ± 0.3,4.36 ± 0.3,4.34 ± 0.3,4.33 ± 0.29,4.43 ± 0.3,4.42 ± 0.3
C=CCCC [1-pentene] + CCCC[n+]1ccc(C)cc1.O=S(=O)([N-]S(=O)(=O)C(F)(F)F)C(F)(F)F,5.42 ± 0.37,5.24 ± 0.36,5.07 ± 0.35,4.93 ± 0.34,4.8 ± 0.33,4.68 ± 0.32,5.81 ± 0.4,5.6 ± 0.38
C#CCCC [1-pentyne] + CCCC[n+]1ccc(C)cc1.O=S(=O)([N-]S(=O)(=O)C(F)(F)F)C(F)(F)F,1.84 ± 0.12,1.87 ± 0.13,1.89 ± 0.13,1.91 ± 0.13,1.93 ± 0.13,1.95 ± 0.13,1.79 ± 0.12,1.82 ± 0.12
COC(C)(C)C [2-methoxy-2-methylpropane] + CCCC[n+]1ccc(C)cc1.O=S(=O)([N-]S(=O)(=O)C(F)(F)F)C(F)(F)F,2.03 ± 0.14,2.06 ± 0.14,2.08 ± 0.14,2.1 ± 0.14,2.12 ± 0.14,2.15 ± 0.15,1.97 ± 0.13,2 ± 0.14
CC(C)=O [acetone] + CCCC[n+]1ccc(C)cc1.O=S(=O)([N-]S(=O)(=O)C(F)(F)F)C(F)(F)F,0.415 ± 0.035,0.423 ± 0.035,0.43 ± 0.035,0.438 ± 0.035,0.445 ± 0.036,0.451 ± 0.036,0.398 ± 0.034,0.406 ± 0.034
c1ccccc1 [benzene] + CCCC[n+]1ccc(C)cc1.O=S(=O)([N-]S(=O)(=O)C(F)(F)F)C(F)(F)F,0.719 ± 0.048,0.735 ± 0.049,0.75 ± 0.049,0.767 ± 0.05,0.781 ± 0.051,0.795 ± 0.052,0.683 ± 0.046,0.702 ± 0.047
CCCCO [butan-1-ol] + CCCC[n+]1ccc(C)cc1.O=S(=O)([N-]S(=O)(=O)C(F)(F)F)C(F)(F)F,2.26 ± 0.15,2.05 ± 0.14,1.87 ± 0.13,1.71 ± 0.11,1.57 ± 0.1,1.46 ± 0.1,,
C1CCCCCC1 [cycloheptane] + CCCC[n+]1ccc(C)cc1.O=S(=O)([N-]S(=O)(=O)C(F)(F)F)C(F)(F)F,9.45 ± 0.64,8.9 ± 0.61,8.39 ± 0.57,7.9 ± 0.54,7.46 ± 0.51,7.14 ± 0.49,10.9 ± 0.7,10.1 ± 0.7
C1CCCCC1 [cyclohexane] + CCCC[n+]1ccc(C)cc1.O=S(=O)([N-]S(=O)(=O)C(F)(F)F)C(F)(F)F,7.76 ± 0.53,7.31 ± 0.5,6.96 ± 0.47,6.54 ± 0.45,6.23 ± 0.42,5.94 ± 0.4,8.93 ± 0.61,8.34 ± 0.57
C1CCCCCCC1 [cyclooctane] + CCCC[n+]1ccc(C)cc1.O=S(=O)([N-]S(=O)(=O)C(F)(F)F)C(F)(F)F,12 ± 0.8,11.2 ± 0.8,10.4 ± 0.7,9.81 ± 0.67,9.26 ± 0.63,8.74 ± 0.6,13.9 ± 1,12.9 ± 0.9
C1CCCC1 [cyclopentane] + CCCC[n+]1ccc(C)cc1.O=S(=O)([N-]S(=O)(=O)C(F)(F)F)C(F)(F)F,5.89 ± 0.4,5.59 ± 0.38,5.28 ± 0.36,5.03 ± 0.34,4.81 ± 0.33,4.6 ± 0.31,6.65 ± 0.45,6.25 ± 0.43
CCCCCCCCCC [decane] + CCCC[n+]1ccc(C)cc1.O=S(=O)([N-]S(=O)(=O)C(F)(F)F)C(F)(F)F,45 ± 3.1,41.1 ± 2.8,37.6 ± 2.6,34.6 ± 2.4,31.9 ± 2.2,29.7 ± 2,54.7 ± 3.7,49.3 ± 3.4
CCOCC [diethyl ether] + CCCC[n+]1ccc(C)cc1.O=S(=O)([N-]S(=O)(=O)C(F)(F)F)C(F)(F)F,2.08 ± 0.14,2.08 ± 0.14,2.08 ± 0.14,2.09 ± 0.14,2.09 ± 0.14,2.09 ± 0.14,2.07 ± 0.14,2.08 ± 0.14
CCCOCCC [dipropyl ether] + CCCC[n+]1ccc(C)cc1.O=S(=O)([N-]S(=O)(=O)C(F)(F)F)C(F)(F)F,4.71 ± 0.32,4.62 ± 0.31,4.54 ± 0.31,4.45 ± 0.3,4.38 ± 0.3,4.31 ± 0.29,4.91 ± 0.33,4.81 ± 0.33
CCO [ethanol] + CCCC[n+]1ccc(C)cc1.O=S(=O)([N-]S(=O)(=O)C(F)(F)F)C(F)(F)F,1.56 ± 0.1,1.43 ± 0.09,1.31 ± 0.09,1.21 ± 0.08,1.12 ± 0.07,1.04 ± 0.07,1.91 ± 0.13,1.72 ± 0.12
CCc1ccccc1 [ethylbenzene] + CCCC[n+]1ccc(C)cc1.O=S(=O)([N-]S(=O)(=O)C(F)(F)F)C(F)(F)F,1.45 ± 0.1,1.48 ± 0.1,1.5 ± 0.1,1.52 ± 0.1,1.54 ± 0.1,1.56 ± 0.1,,
CCCCCCC [heptane] + CCCC[n+]1ccc(C)cc1.O=S(=O)([N-]S(=O)(=O)C(F)(F)F)C(F)(F)F,17.7 ± 1.2,16.6 ± 1.1,15.6 ± 1.1,14.7 ± 1,13.9 ± 1,13.2 ± 0.9,20.4 ± 1.4,18.9 ± 1.3
C=CCCCC [hex-1-ene] + CCCC[n+]1ccc(C)cc1.O=S(=O)([N-]S(=O)(=O)C(F)(F)F)C(F)(F)F,6.82 ± 0.47,6.58 ± 0.45,6.37 ± 0.43,6.17 ± 0.42,5.99 ± 0.41,5.82 ± 0.4,7.4 ± 0.5,7.11 ± 0.48
CCCCCC [hexane] + CCCC[n+]1ccc(C)cc1.O=S(=O)([N-]S(=O)(=O)C(F)(F)F)C(F)(F)F,13.5 ± 0.9,12.7 ± 0.9,12 ± 0.8,11.4 ± 0.8,10.8 ± 0.7,10.3 ± 0.7,15.4 ± 1.1,14.5 ± 1
CO [methanol] + CCCC[n+]1ccc(C)cc1.O=S(=O)([N-]S(=O)(=O)C(F)(F)F)C(F)(F)F,1.27 ± 0.08,1.17 ± 0.07,1.08 ± 0.07,1 ± 0.06,0.935 ± 0.059,0.876 ± 0.056,1.53 ± 0.1,1.39 ± 0.09
CCCCCCCCC [nonane] + CCCC[n+]1ccc(C)cc1.O=S(=O)([N-]S(=O)(=O)C(F)(F)F)C(F)(F)F,32.3 ± 2.2,29.8 ± 2,27.6 ± 1.9,25.6 ± 1.8,23.8 ± 1.6,22 ± 1.5,38.9 ± 2.7,35.5 ± 2.4
